Data taken from patent publication US20260138976A1 (Hoffmann-La Roche Inc., priority 2022, published 2026).

Columns and labels:
[1] = target: T1, DGKα (hDGKalpha(1-735)-N-His) (Homo sapiens, UniProt P23743); test: In vitro DGK inhibition assay, DGKalpha ADP Glo (in house); type: biochemical; settings: 4 nM DGKα, 25 μM ATP, 125 uM DLG in liposomes, 1 hour reaction
T1 construct: hDGKalpha(1-735)-N-His; His (N); made in house; host or cells: Sf21 insect cells (baculovirus)
Procedure, shortened: (§1)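 Full-length His-tagged human DGKα (4 nM) or DGKζ (2 nM), expressed in Sf21 cells, phosphorylated 125 µM DLG in PS/PC liposomes with ATP at 25 µM (α) or 50 µM (ζ) for 1 h. ADP was measured by ADP-Glo luminescence. Compounds were tested as 11-point 1:3 series in 2% DMSO.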

[2] = target: T2, DGKζ (hDGKzeta(1-928)-N-His) (Homo sapiens, UniProt Q13574); test: In vitro DGK inhibition assay, DGKzeta ADP Glo (in house); type: biochemical; settings: 2 nM DGKζ, 50 μM ATP, 125 uM DLG in liposomes, 1 hour reaction
T2 construct: hDGKzeta(1-928)-N-His; His (N); made in house; host or cells: Sf21 insect cells (baculovirus)
T2 sequence (Q13574 whole entry): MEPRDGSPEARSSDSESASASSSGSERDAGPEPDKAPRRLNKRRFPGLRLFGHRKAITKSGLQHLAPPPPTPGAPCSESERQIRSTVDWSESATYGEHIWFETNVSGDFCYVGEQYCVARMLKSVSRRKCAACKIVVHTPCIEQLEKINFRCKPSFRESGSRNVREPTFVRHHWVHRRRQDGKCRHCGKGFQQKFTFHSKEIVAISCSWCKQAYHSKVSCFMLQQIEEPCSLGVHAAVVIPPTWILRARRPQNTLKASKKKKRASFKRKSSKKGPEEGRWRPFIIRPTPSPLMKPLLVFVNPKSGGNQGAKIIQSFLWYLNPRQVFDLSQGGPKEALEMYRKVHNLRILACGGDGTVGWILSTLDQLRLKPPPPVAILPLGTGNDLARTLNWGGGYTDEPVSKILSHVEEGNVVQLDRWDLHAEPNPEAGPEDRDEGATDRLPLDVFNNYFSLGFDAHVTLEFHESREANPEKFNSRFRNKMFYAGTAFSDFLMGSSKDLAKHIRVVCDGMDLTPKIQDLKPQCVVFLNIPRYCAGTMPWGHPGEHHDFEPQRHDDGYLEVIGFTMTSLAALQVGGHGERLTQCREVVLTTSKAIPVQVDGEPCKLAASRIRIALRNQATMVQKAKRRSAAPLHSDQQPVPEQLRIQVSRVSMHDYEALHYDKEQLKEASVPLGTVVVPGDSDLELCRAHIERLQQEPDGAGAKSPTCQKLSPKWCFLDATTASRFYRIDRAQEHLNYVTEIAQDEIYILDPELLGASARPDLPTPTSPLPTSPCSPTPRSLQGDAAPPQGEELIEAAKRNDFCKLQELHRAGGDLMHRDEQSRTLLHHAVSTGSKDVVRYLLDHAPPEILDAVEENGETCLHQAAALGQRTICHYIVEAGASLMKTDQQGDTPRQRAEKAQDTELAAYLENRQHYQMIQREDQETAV
Procedure, shortened: as §1

primary human T-cells = test: IL2 secretion measurements (24 h, CD3-stimulated T-cells, PBS counter screen); type: cell-based; settings: for Emax IL2 (% activation): CD3 condition, normalised to DMSO (neutral) and 20 μM reference compound A1 = 100%; for EC50: Homo sapiens, T-cell, CD3-stimulated primary human T-cells, IL2 secretion, fitted sigmoidal curve, read-out: Tcell IL2 CD3 EC50
Procedure, shortened: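 Expanded primary human T-cells (100k/well) were plated on anti-CD3-coated or PBS-only plates with compound in a 5–6 point dose response (top 20 or 10 μM final, 3.333-fold, 0.2% DMSO). IL-2 in 24 h supernatants was quantified by ProQuantum immunoassay or ELISA. Values were normalized to DMSO and 20 μM reference compound A1 (100%), giving EC50 and Emax.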

T1 sequence (P23743 whole entry): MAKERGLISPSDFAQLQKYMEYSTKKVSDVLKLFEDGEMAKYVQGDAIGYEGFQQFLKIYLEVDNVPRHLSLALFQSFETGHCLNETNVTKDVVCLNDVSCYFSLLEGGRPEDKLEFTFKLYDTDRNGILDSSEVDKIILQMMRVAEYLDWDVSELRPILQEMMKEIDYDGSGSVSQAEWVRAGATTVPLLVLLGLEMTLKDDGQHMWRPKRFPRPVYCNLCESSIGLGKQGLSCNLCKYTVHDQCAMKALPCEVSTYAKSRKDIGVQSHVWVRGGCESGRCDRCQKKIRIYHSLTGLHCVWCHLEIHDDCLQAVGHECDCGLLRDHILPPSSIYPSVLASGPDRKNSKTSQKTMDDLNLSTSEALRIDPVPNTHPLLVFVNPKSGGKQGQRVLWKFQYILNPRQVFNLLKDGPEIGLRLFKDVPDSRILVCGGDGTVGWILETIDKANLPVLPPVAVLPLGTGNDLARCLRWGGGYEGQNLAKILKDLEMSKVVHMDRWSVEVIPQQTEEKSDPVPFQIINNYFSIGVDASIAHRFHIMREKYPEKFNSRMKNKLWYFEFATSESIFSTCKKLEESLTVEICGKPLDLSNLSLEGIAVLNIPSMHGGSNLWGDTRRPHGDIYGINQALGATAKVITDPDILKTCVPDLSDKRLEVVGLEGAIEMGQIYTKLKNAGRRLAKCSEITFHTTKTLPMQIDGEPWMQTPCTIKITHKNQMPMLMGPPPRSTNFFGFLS

In the case of `N[C@H]1CS(=O)(=O)c2ccc(-c3nnc(C4(N)CCCCC4)o3)cc2N(Cc2ccc(-c3ccc(C(F)(F)F)cc3)cc2)C1=O` [Example 42, (3R)-3-amino-7-[5-(1-aminocyclohexyl)-1,3,4-oxadiazol-2-yl]-1,1-dioxo-5-[[4-[4-(trifluoromethyl)phenyl]phenyl]methyl]-2,3-dihydro-1λ^6,5-benzothiazepin-4-one], the IC50 [1] is reported as 30400 nM, the IC50 [2] is reported as 8120 nM and the “Emax IL2 (% activation)” value (primary human T-cells) is reported as 128 % activation. For the same compound, the EC50 (primary human T-cells) was 1390 nM.

For `COc1ccc(-c2ccc(CN3C(=O)[C@@H](N)CS(=O)(=O)c4ccc(-c5nnc(C6(N)CCCCC6)o5)cc43)cc2)cc1` [Example 43, (3R)-3-amino-7-[5-(1-aminocyclohexyl)-1,3,4-oxadiazol-2-yl]-5-[[4-(4-methoxyphenyl)phenyl]methyl]-1,1-dioxo-2,3-dihydro-1λ^6,5-benzothiazepin-4-one], the IC50 [1] was 17100 nM, the IC50 [2] was 1090 nM and the “Emax IL2 (% activation)” value (primary human T-cells) was 89 % activation. It also gave an EC50 (primary human T-cells) of 771 nM.

With `COc1ccc(-c2ccc(CN3C(=O)[C@@H](N)CS(=O)(=O)c4ccc(-c5nnc(C6(F)CCCN(C)C6)o5)cc43)cc2)cc1` (stereo partly drawn) [Example 50, (3R)-3-amino-7-[5-(3-fluoro-1-methyl-3-piperidyl)-1,3,4-oxadiazol-2-yl]-5-[[4-(4-methoxyphenyl)phenyl]methyl]-1,1-dioxo-2,3-dihydro-1λ^6,5-benzothiazepin-4-one] the IC50 [1] was 3380 nM, the IC50 [2] was 851 nM and the “Emax IL2 (% activation)” value (primary human T-cells) was 119 % activation. For the same compound, the EC50 (primary human T-cells) was 3600 nM.

For `CN1CCCC(F)(c2nnc(-c3ccc4c(c3)N(Cc3ccc(-c5ccc(C(F)(F)F)cn5)cc3)C(=O)[C@@H](N)CS4(=O)=O)o2)C1` (stereo partly drawn) [Example 51, (3R)-3-amino-7-[5-(3-fluoro-1-methyl-3-piperidyl)-1,3,4-oxadiazol-2-yl]-1,1-dioxo-5-[[4-[5-(trifluoromethyl)-2-pyridyl]phenyl]methyl]-2,3-dihydro-1λ^6,5-benzothiazepin-4-one], the IC50 [1] was 6260 nM, the IC50 [2] was 1800 nM and the “Emax IL2 (% activation)” value (primary human T-cells) was 135 % activation. The EC50 (primary human T-cells) was 2490 nM.

With `N[C@H]1CS(=O)(=O)c2ccc(-c3nnc(C4(CO)CCCO4)o3)cc2N(Cc2ccc(-c3noc(C(F)(F)F)n3)cc2)C1=O` (stereo partly drawn) [Example 54, (3R)-3-amino-7-[5-[2-(hydroxymethyl)tetrahydrofuran-2-yl]-1,3,4-oxadiazol-2-yl]-1,1-dioxo-5-[[4-[5-(trifluoromethyl)-1,2,4-oxadiazol-3-yl]phenyl]methyl]-2,3-dihydro-1λ^6,5-benzothiazepin-4-one] the IC50 [1] was 12600 nM, the IC50 [2] was 1380 nM and the “Emax IL2 (% activation)” value (primary human T-cells) was 126 % activation. It also gave an EC50 (primary human T-cells) of 3340 nM.

For `COC(=O)N1CC(c2nnc(-c3ccc4c(c3)N(Cc3ccc(-c5noc(C(C)(C)C)n5)cc3)C(=O)[C@@H](N)CS4(=O)=O)o2)CC(F)(F)C1` (stereo partly drawn) [Example 56, methyl 3,3-difluoro-5-[5-[(3R)-3-amino-5-[[4-(5-tert-butyl-1,2,4-oxadiazol-3-yl)phenyl]methyl]-1,1,4-trioxo-2,3-dihydro-1λ^6,5-benzothiazepin-7-yl]-1,3,4-oxadiazol-2-yl]piperidine-1-carboxylate], the IC50 [1] was 1990 nM, the IC50 [2] was 228 nM and the “Emax IL2 (% activation)” value (primary human T-cells) was 109 % activation. The EC50 (primary human T-cells) was 940 nM.

In the case of `COC(=O)N1CC(c2nnc(-c3ccc4c(c3)N(Cc3ccc(-c5ccc(C(F)(F)F)cc5)nc3)C(=O)[C@@H](N)CS4(=O)=O)o2)CC(F)(F)C1` (stereo partly drawn) [Example 57, methyl 3,3-difluoro-5-[5-[(3R)-3-amino-1,1,4-trioxo-5-[[6-[4-(trifluoromethyl)phenyl]-3-pyridyl]methyl]-2,3-dihydro-1λ^6,5-benzothiazepin-7-yl]-1,3,4-oxadiazol-2-yl]piperidine-1-carboxylate], the IC50 [1] is reported as 3340 nM, the IC50 [2] is reported as 2340 nM and the “Emax IL2 (% activation)” value (primary human T-cells) is reported as 100 % activation. The EC50 (primary human T-cells) was 652 nM.
